Data taken from ChEMBL document CHEMBL2177056, “Bis(arylvinyl)pyrazines, -pyrimidines, and -pyridazines as imaging agents for tau fibrils and β-amyloid plaques in Alzheimer's disease models” (J Med Chem, 2012).
Calls of active or inactive are those of the source. The calls are words filed in the database; no cut-off is given here.

Legend:
[1] = biological target: T1, Microtubule-associated protein tau (Homo sapiens, UniProt P10636); assay: Displacement of thiazene red from tau aggregate
[2] = Displacement of thiazene red from amyloid beta (1 to 40) aggregate
[3] = biological target: T1, Microtubule-associated protein tau; assay: Binding affinity to extracellular tau plaques in Alzheimer patient brain by fluorescence microscopic analysis
[4] = biological target: T1, Microtubule-associated protein tau; assay: Binding affinity to intracellular fibrillar tau in Alzheimer patient brain by fluorescence microscopic analysis; format: cell-based
[5] = biological target: T1, Microtubule-associated protein tau; assay: Binding affinity to tau aggregate in Alzheimer patient bowmans gland of olfactory epithelium
[6] = test system: HepG2; assay: Cytotoxicity against human HepG2 cells; format: cell-based
[7] = test system: Mus musculus; assay: Binding affinity to amyloid beta plaque in transgenic mouse brain overexpressing APP Swedish mutant/PS1deltaE9 at 2 mg/kg, ip after 4 hrs by fluorescence microscopic analysis; format: functional, organism-based; design: dose 2 mg/kg
[8] = Selectivity ratio of IC50 for tau aggregate to IC50 for amyloid beta (1 to 40) aggregate
[9] = biological target: Amyloid-beta precursor protein (Homo sapiens) (UniProt P05067); assay: Binding affinity to intravascular amyloid beta angiopathies in Alzheimer patient brain by fluorescence microscopic analysis
Sequence of Amyloid-beta precursor protein (Homo sapiens) (P05067 whole entry): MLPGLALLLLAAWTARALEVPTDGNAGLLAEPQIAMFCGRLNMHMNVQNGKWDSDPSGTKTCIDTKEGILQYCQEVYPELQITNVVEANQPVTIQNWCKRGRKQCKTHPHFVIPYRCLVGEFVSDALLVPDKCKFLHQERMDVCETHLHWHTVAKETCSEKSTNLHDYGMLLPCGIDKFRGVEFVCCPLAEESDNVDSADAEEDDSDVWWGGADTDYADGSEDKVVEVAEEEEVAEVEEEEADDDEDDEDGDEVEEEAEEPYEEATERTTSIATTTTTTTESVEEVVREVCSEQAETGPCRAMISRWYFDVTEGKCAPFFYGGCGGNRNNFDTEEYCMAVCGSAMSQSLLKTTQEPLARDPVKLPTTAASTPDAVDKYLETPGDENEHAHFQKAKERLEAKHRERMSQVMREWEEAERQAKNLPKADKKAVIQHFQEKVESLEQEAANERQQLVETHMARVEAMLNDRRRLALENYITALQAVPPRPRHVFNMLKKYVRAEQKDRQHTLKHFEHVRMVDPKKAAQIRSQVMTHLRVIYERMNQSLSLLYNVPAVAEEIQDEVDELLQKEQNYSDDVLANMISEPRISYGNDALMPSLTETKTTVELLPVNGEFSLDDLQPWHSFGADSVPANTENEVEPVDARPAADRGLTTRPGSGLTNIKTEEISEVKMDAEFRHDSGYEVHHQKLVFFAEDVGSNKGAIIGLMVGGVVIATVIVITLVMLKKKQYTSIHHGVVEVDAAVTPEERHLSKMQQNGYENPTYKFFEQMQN

[10] = biological target: Amyloid-beta precursor protein (Homo sapiens) (UniProt P05067); assay: Binding affinity to extracellular amyloid beta plaques in Alzheimer patient brain by fluorescence microscopic analysis
[11] = Displacement of methoxy-XO4 from amyloid beta (1 to 40) aggregate
[12] = Lipophilicity, log P of the compound; format: physicochemical; settings: octanol/water
[13] = Selectivity ratio of IC50 for amyloid beta (1 to 40) aggregate to IC50 for tau aggregate

T1 sequence (P10636 whole entry): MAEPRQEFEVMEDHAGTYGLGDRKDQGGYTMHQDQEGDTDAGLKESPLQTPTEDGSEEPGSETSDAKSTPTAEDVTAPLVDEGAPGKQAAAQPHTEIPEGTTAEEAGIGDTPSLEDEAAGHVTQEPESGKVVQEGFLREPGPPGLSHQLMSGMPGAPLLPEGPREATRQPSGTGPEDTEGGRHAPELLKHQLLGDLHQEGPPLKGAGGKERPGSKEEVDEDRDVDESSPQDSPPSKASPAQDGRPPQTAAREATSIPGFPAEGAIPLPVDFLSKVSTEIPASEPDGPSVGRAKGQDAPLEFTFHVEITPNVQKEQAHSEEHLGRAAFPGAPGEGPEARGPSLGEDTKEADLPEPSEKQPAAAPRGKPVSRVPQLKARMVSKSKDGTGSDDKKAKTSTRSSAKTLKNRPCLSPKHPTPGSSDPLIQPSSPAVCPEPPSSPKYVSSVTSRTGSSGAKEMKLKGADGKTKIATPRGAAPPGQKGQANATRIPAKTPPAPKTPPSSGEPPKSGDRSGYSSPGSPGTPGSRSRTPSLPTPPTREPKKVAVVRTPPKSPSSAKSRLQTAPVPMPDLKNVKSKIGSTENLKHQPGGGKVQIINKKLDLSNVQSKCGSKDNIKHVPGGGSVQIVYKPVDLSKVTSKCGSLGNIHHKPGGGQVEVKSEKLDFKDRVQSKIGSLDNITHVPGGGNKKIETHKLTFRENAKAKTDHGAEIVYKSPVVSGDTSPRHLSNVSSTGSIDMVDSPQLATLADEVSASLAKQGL

Row | Activity [3] | Activity [4] | IC50 ([1]; read-out: IC50) | IC50 ([2]; read-out: IC50) | Compound | other results
1 | Active | Active |  |  | Cn1cccc1/C=C/c1cc(-c2ccccc2)c(/C=C/c2cccn2C)nn1 | IC50 [1]: Not Active; IC50 [2]: Not Active
2 | Active | Active | 1590 nM | 4570 nM | COc1ccc(-c2cc(/C=C/c3ccc(N(C)C)cc3)nnc2/C=C/c2ccc(N(C)C)cc2)cc1 | 
3 | Active | Active | 42 nM | 51 nM | CN1CCN(c2ccc(/C=C/c3cnc(/C=C/c4ccc(N5CCN(C)CC5)cc4)cn3)cc2)CC1 | 
4 | Active | Active | 6 nM | 43 nM | C(=C\c1cnc(/C=C/c2ccc(N3CCOCC3)cc2)cn1)/c1ccc(N2CCOCC2)cc1 | 
5 | Active | Active |  |  | Cn1cccc1/C=C/c1cnc(/C=C/c2cccn2C)cn1 | 
6 | Active | Active |  |  | CC(C)c1ccc(/C=C/c2cnc(/C=C/c3ccc(C(C)C)cc3)cn2)cc1 | IC50 [1]: Not Active; IC50 [2]: Not Active
7 | Active | Active | 7470 nM | 2380 nM | CN1CCN(c2ccc(/C=C/c3cc(/C=C/c4ccc(N5CCN(C)CC5)cc4)ncn3)cc2)CC1 | 
8 | Active | Active | 4 nM | 54 nM | CN(C)c1ccc(/C=C/c2cc(/C=C/c3ccc(N(C)C)cc3)ncn2)cc1 | Activity [5]: Active; Activity [6]: Non-toxic; Activity [7]: Active; Ratio IC50 [8]: 13.5
9 | Active | Active |  |  | CN(C)c1ccc(/C=C/c2cnc(/C=C/c3ccc(N(C)C)cc3)cn2)cc1 | Activity [7]: Active; Activity [9]: Active; Activity [10]: Active
10 | Active | Active | 2 nM | 52 nM | C(=C\c1cc(/C=C/c2ccc(N3CCCC3)cc2)ncn1)/c1ccc(N2CCCC2)cc1 | Activity [6]: Non-toxic; Activity [7]: inactive
11 | Active | Active |  |  | C(=C\c1cnc(/C=C/c2ccc(N3CCCCC3)cc2)cn1)/c1ccc(N2CCCCC2)cc1 | 
12 | Active | Active |  |  | CN(C)c1ccc(/C=C/c2cc(-c3ccccc3)c(/C=C/c3ccc(N(C)C)cc3)nn2)cc1 | IC50 [1]: Not Active; IC50 [2]: Not Active
13 | Active | Active |  |  | C(=C\c1cnc(/C=C/c2ccc(N3CCCC3)cc2)cn1)/c1ccc(N2CCCC2)cc1 | 
14 | Active | Active | 13 nM | 17 nM | COc1ccc(/C=C/c2cnc(/C=C/c3ccc(OC)cc3)cn2)cc1 | 
15 | Active | Active | 4710 nM | 7590 nM | C(=C\c1cc(-c2ccccc2)c(/C=C/c2ccc(N3CCOCC3)cc2)nn1)/c1ccc(N2CCOCC2)cc1 | 
16 |  |  |  |  | [11CH3]Oc1cc(/C=C/c2ccc(O)cc2)ccc1/C=C/c1ccc(O)cc1 | Ki [11]: 26.8 nM
17 | Active | Active | 2 nM | 3 nM | CN(C)c1ccc(/C=C/C=C/c2cc(/C=C/C=C/c3ccc(N(C)C)cc3)ncn2)cc1 | 
18 |  |  | 246 nM | 140 nM | COc1cc(/C=C/c2ccc(O)cc2)ccc1/C=C/c1ccc(O)cc1 | logP [12]: 2.6; Ratio IC50 [13]: 1.8
19 | Active | Active | 1250 nM | 10100 nM | CN(C)c1ccc(/C=C/c2cc(-c3ccccc3F)c(/C=C/c3ccc(N(C)C)cc3)nn2)cc1 | 
20 | Active | Active | 17 nM | 156 nM | C(=C\c1cc(/C=C/c2ccc(N3CCCCC3)cc2)ncn1)/c1ccc(N2CCCCC2)cc1 | 
21 | Active | Active |  |  | C(=C\c1cc(/C=C/c2ccc(N3CCOCC3)cc2)ncn1)/c1ccc(N2CCOCC2)cc1 | IC50 [1]: Not Active; IC50 [2]: Not Active
